Measurements from patent US11980596B2 (priority 2017, dated 2024).

Key:
rat liver cells = test: In vivo Comet assay; conditions: intravenously-administered
[1] = test system: P-gp, BCRP, OATP1B1, OATP1B3, MATE1, MATE2-K, OCT2, OAT1, OAT3; test: Transporter substrate and inhibition studies; conditions: not told
[2] = test system: subjects with MDD at imminent risk for suicide; test: Beck Hopelessness Scale (BHS) ([…]2001); format: in vivo, human; conditions: for BHS total score: change vs placebo: 84 mg
Excerpt: The BHS is a self-reported measure to assess one's level of negative expectations or pessimism regarding the future. It consists of 20 true-false items that examine the respondent's attitude over the past week by either endorsing a pessimistic statement or denying an optimistic statement. For every statement, each response is assigned a score of 0 or 1. The total BHS score is a sum of item responses and ranges from 0 to 20, with a higher score representing a higher level of hopelessness.

[3] = test system: subjects with MDD at imminent risk for suicide; test: Study completion/withdrawal, double-blind phase ([…]2001); format: in vivo, human; conditions: esketamine 84 mg; all randomized analysis set, N = 36
Procedure: Of the 68 subjects in the all randomized analysis set, 19 (27.9%) subjects discontinued from the double-blind phase. More subjects in the esketamine 84 mg group discontinued due to adverse events (5 subjects in the esketamine 84 mg group versus 1 subject in the placebo group) whereas more subjects in the placebo group discontinued due to lack of efficacy (4 subjects in the placebo group versus 1 subject in the esketamine 84 mg group).

[4] = Pharmacokinetics of intranasal esketamine in healthy subjects (Example 9)
Procedure: Blood samples (4 mL each) for determination of esketamine and noresketamine plasma concentrations were collected into the appropriate collection tube (e.g., Vacutainer®) at timepoints 0.00, 0.12, 0.20, 0.37, 0.53, 0.67, 0.83, 1.00, 1.25, 1.50, 2.00, 3.00, 4.00, 6.00, 9.00, 12.00, 18.00, and 24.00 h. The total amount of blood to be drawn for clinical laboratory tests and PK evaluations is approximately 327 mL.
Plasma samples were analyzed for esketamine and noresketamine concentrations using the validated, specific and sensitive liquid chromatography coupled to tandem mass spectrometry (LC-MS/MS) achiral method of Example 8.
Serial PK blood samples (4 mL each) were collected for a 24-hour period from each subject (Periods 1, 2, and 3). […] Statistical Methods 1.6.4.1. Sample Size
The following key parameters of esketamine and noresketamine in plasma were calculated using noncompartmental methods and actual sampling times: Cmax, tmax, AUClast, AUC∞, t1/2,λ, and λz.

CYP2B6, CYP3A4, CYP1A2 = test: CYP induction in human hepatocytes
patients with TRD = test: Dissociation by CADSS in SPRAVATO clinical trials (label); format: in vivo, human
Excerpt: The most common psychological effects of SPRAVATO were dissociative or perceptual changes (including distortion of time, space and illusions), derealization and depersonalization (61% to 75% of SPRAVATO-treated patients developed dissociative or perceptual changes based on the Clinician Administered Dissociative Symptoms Scale) [see Adverse Reactions (6.1)]. Given its potential to induce dissociative effects, carefully assess patients with psychosis before administering SPRAVATO; treatment should be initiated only if the benefit outweighs the risk.
SPRAVATO can cause dissociative symptoms (including derealization and depersonalization) and perceptual changes (including distortion of time and space, and illusions). In clinical trials, dissociation was transient and occurred on the day of dosing. Dissociation was evaluated by adverse event reports and the Clinician-Administered Dissociative States Scale (CADSS) questionnaire. A CADSS total score of more than 4 indicates presence of dissociative symptoms, and such an increase to a score of 4 or more occurred in a higher number of patients on esketamine compared to placebo during the short-term trials (see Table 5).

[5] = test system: subjects with MDD at imminent risk for suicide; test: MADRS suicide item ([…]2001); format: in vivo, human; conditions: 84 mg; Day 1: 4-hours postdose, Day 2 (DB), End Point (DB); two-sided level 0.20
Excerpt: • a. Changes from baseline to Day 2 and Day 25 for the MADRS total score • b. Changes from baseline to Day 1 4-hours postdose, Day 2 and Day 25 for the MADRS Suicide Item • c. Changes from baseline to Day 1 4-hours postdose, Day 2, and Day 25 for the clinical global judgment of suicide risk from the Suicide Ideation and Behavior Assessment Tool (SIBAT) • d. Sustained response (Onset of Clinical Response) defined as at least 50% reduction from baseline in MADRS total score with onset on Day 1 that is maintained through the end of the double-blind phase (Day 25) • e. Changes from baseline to Day 1 4-hours postdose, Day 2, and Day 25 for the Beck Scale for Suicidal Ideation (BSS) • f. Changes from baseline to Day 1 4-hours postdose and Day 25 for the Beck Hopelessness Scale
Results of the change from baseline over time for the suicide item from the MADRS assessment can be found in Attachment 1.

[6] = Pre- and postnatal study, intranasal esketamine, pregnant rats; format: in vivo, rat; conditions: female, rat, in vivo, inhaled or intranasal; intranasal; pregnancy and lactation; read-out: NOAEL for maternal toxicity and decreased motor activity during the postweaning period
Procedure: (§1) This sensory/motor developmental measure was tested starting on postnatal day (PND) 9, and the effect normalized by PND 19 in treatment groups as compared with PND 14 for the majority of the control animals. There is no NOAEL for this delay in sensory/motor response observed in pups during the preweaning period.

pregnant rats and pups = test: as above; format: in vivo, rat
Procedure: as §1

[7] = esketamine 84 mg minus placebo, ANCOVA LOCF
[8] = esketamine 84 mg, LOCF, ITT, N = 35
[9] = esketamine 84 mg, LOCF, ITT, N = 35, negative change = improvement

CN[C@]1(c2ccccc2Cl)CCCCC1=O [esketamine, (S)-2-(2-chlorophenyl)-2-(methylamino)cyclohexanone]
Genotoxicity (rat liver cells): devoid of genotoxic properties
Inhibition of P-gp, BCRP, OATP1B1, OATP1B3, MATE1, MATE2-K, OCT2, OAT1 or OAT3 [1]: do not inhibit
Substrate of P-gp, BCRP, OATP1B1 or OATP1B3 [1]: not a substrate
BHS total score: change vs placebo ([2]; Day 1: 4-hours postdose): no statistically significant difference
BHS total score: change vs placebo ([2]; End Point (DB)): statistically superior
BHS total score, change to Day 1 (DB): 4H, Diff. of LS Means (SE) [2, 7]: −1.5 (1.47)
BHS total score, change to End Point (DB), Diff. of LS Means (SE) [2, 7]: −2.3 (1.66)
BHS total score, Day 1 (DB): 4H, Median (Range) [2, 8]: 14.0 (0; 20)
BHS total score, End Point (DB), Mean (SD) [2, 8]: 6.2 (5.96)
BHS total score, End Point (DB), Median (Range) [2, 8]: 4.0 (0; 20)
BHS total score, Change from Baseline to Day 1 (DB): 4H, Mean (SD) [2, 9]: −4.1 (5.63)
BHS total score, Change from Baseline to Day 1 (DB): 4H, Median (Range) [2, 9]: −2.0 (−16; 2)
BHS total score, Change from Baseline to End Point (DB), Median (Range) [2, 9]: −11.0 (−19; 0)
BHS total score, Baseline (DB), Median (Range) ([2]; esketamine 84 mg, predose Day 1, ITT, N = 35): 17.0 (9; 20)
Withdrawn from double-blind phase: Lack of Efficacy [3]: 1 (2.8%) subjects (%)
Dose proportionality of mean plasma Cmax and AUC ([4]; 28-mg, 56-mg and 84-mg intranasal regimens): less than dose-proportional
AUC (AUClast and AUC∞) variability ([4]; esketamine): 25.0% to 30.4
Cmax variability (percent coefficient of variation) ([4]; esketamine, across the 3 treatment groups): 35.7% to 36.7
Induction of CYP1A2 (CYP2B6, CYP3A4, CYP1A2; hepatocytes): do not induce
Induction of CYP2B6 and CYP3A4 (CYP2B6, CYP3A4, CYP1A2; human hepatocytes): modest induction effects
Incidence of dissociation reported as severe in intensity (patients with TRD; across studies): less than 4%
Dissociation symptoms typically resolved by (patients with TRD; after dosing): ≤ 1.5 h
MADRS suicide item: change from baseline vs placebo [5]: Statistically significant differences favoring esketamine
NOAEL [6]: 4.5 mg/kg/day
AUC exposure, multiple of the MRHD of 84 mg/day (pregnant rats and pups; 4.5 mg/kg/day intranasal): 0.07 times
AUC exposure, multiple of the MRHD of 84 mg/day (pregnant rats and pups; 15 mg/kg/day intranasal): 0.5 times
AUC exposure, multiple of the MRHD of 84 mg/day (pregnant rats and pups; 45 mg/kg/day intranasal): 0.7 times
